Measurements published in patent US20240224991A9, “NANO-DISPERSION COMPRISING CELLULOSE NANOCRYSTAL AS PESTICIDE/FUNGICIDE CARRIERS FOR AGRICULTURE AND AQUACULTURE” (priority 2022, published 2024).

Test system: mealworms
Assay: Pest mortality test, mealworms on sprayed spinach leaves
Format: in vivo, mealworms (larval form of the mealworm beetles)
Conditions: 100 ppm DEL, in 2 hours, FIG. 3C
Description: Deltamethrin and permethrin/CNC nano-dispersions with agrochemical and CNC mass ratio of 1:100 were prepared according to the said process in example 5, and they are designated as CNC-DEL and CNC-PER, respectively. The resulting nano-dispersions were diluted to 0.1 wt %, 0.5 wt %, 1.0 wt % and 1.5 wt %, where the corresponding active ingredient concentration was around 10 ppm, 50 ppm, 100 ppm and 150 ppm. To perform the pest control test, fresh spinach leaves were spread on a petri dish (10 cm diameter), then 2 mL of the dispersion was sprayed on top (1 mL) and bottom (1 mL) of the leave surface, and 20 active worms were placed on top of the leaves. The survival rate of the works was recorded at set time intervals. In comparison, the pest control efficiency of 1 wt % CNC (0 ppm DEL) and DEL control (100 ppm DEL) were also investigated and compared with 1.0 wt % CNC-DEL (100 ppm DEL). In addition, the pest control efficiency of CNC-PER was compared with the commercial EC pesticide ORTHO® HOME DEFENSE® MAX™ under the same PER dosage.
Both permethrin and deltamethrin are wide spectrum pesticides that belong to synthetic pyrethroids pesticides. Their mode of action is mainly based on contact and stomach toxicity. The pest control efficiency of CNC-DEL and CNC-PER nano-dispersions were evaluated with two model worms, mealworms and waxworms. […]

CC1(C)[C@H](C(=O)O[C@H](C#N)c2cccc(Oc3ccccc3)c2)[C@@H]1C=C(Br)Br [DEL control, Deltamethrin]
mortality at 100 ppm: 30%
